Laboratory results from patent US10035790B2, “RORγ modulators” (BRISTOL-MYERS SQUIBB COMPANY, priority 2012, dated 2018).

Target: T1, ligand binding domain of human RORγ (A262-S507) (Homo sapiens, UniProt P51449)
T1 construct: made in house; host or cells: E. coli
T1 sequence (P51449 262-507): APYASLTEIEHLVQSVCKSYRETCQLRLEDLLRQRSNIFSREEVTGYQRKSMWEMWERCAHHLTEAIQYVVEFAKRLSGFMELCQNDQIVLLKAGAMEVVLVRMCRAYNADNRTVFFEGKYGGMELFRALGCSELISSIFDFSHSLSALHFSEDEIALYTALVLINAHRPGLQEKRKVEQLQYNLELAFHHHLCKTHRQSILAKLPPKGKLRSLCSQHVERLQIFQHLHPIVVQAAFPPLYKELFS
Assay: General RORγ SPA binding assay (competition with [3H]25-hydroxycholesterol)
Details: RORγ SPA binding assay, inhibition of [3H]25-hydroxycholesterol binding; read-out: IC50
Method in brief: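 Step one: compound meets 50 nM nickel-purified, His-tagged protein from E. coli for 15 min at room temperature (PBS, 0.5% fatty acid free BSA). Step two: radioligand is added for another 15 min. Step three: SPA beads are added for 30 min before scintillation reading and IC50 fitting.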

Row | SMILES | IC50 [nM]
1 | Cc1nc(N)nc(C2CCN(C(=O)Oc3c(F)cccc3F)CC2)c1-c1nnc(-c2ccnc(C(F)(F)F)n2)o1 [Compound C50, 2,6-Difluorophenyl 4-(2-amino-6-methyl-5-{5-[2-(trifluoromethyl)pyrimidin-4-yl]-1,3,4-oxadiazol-2-yl}pyrimidin-4-yl)piperidine-1-carboxylate] | 6.1
2 | Cc1nc(N)nc(C2CCN(C(=O)Oc3ccccc3Cl)CC2)c1-c1nnc(-c2ccnc(C(F)(F)F)n2)o1 [Compound C51, 2-Chlorophenyl 4-(2-amino-6-methyl-5-{5-[2-(trifluoromethyl)pyrimidin-4-yl]-1,3,4-oxadiazol-2-yl}pyrimidin-4-yl)piperidine-1-carboxylate] | 10.5
3 | Cc1nc(N)nc(C2CCN(C(=O)Oc3ccccc3F)CC2)c1-c1nnc(-c2ccnc(C(F)(F)F)n2)o1 [Compound C52, 2-Fluorophenyl 4-(2-amino-6-methyl-5-{5-[2-(trifluoromethyl)pyrimidin-4-yl]-1,3,4-oxadiazol-2-yl}pyrimidin-4-yl)piperidine-1-carboxylate] | 8.7
4 | Cc1nc(N)nc(C2CCN(C(=O)Oc3ccc(F)cc3)CC2)c1-c1nnc(-c2ccnc(C(F)(F)F)n2)o1 [Compound C53, 4-Fluorophenyl 4-(2-amino-6-methyl-5-{5-[2-(trifluoromethyl)pyrimidin-4-yl]-1,3,4-oxadiazol-2-yl}pyrimidin-4-yl)piperidine-1-carboxylate] | 37.3
5 | Cc1nc(N)nc(C2CCN(C(=O)Oc3cc(F)ccc3F)CC2)c1-c1nnc(-c2ccnc(C(F)(F)F)n2)o1 [Compound C54, 2,5-Difluorophenyl 4-(2-amino-6-methyl-5-{5-[2-(trifluoromethyl)pyrimidin-4-yl]-1,3,4-oxadiazol-2-yl}pyrimidin-4-yl)piperidine-1-carboxylate] | 21.1
6 | Cc1nc(N)nc(C2CCN(C(=O)Oc3cccc(F)c3)CC2)c1-c1nnc(-c2ccnc(C(F)(F)F)n2)o1 [Compound C55, 3-Fluorophenyl 4-(2-amino-6-methyl-5-{5-[2-(trifluoromethyl)pyrimidin-4-yl]-1,3,4-oxadiazol-2-yl}pyrimidin-4-yl)piperidine-1-carboxylate] | 19.2
7 | Cc1nc(N)nc(C2CCN(C(=O)Oc3ccc(F)cc3F)CC2)c1-c1nnc(-c2ccnc(C(F)(F)F)n2)o1 [Compound C56, 2,4-Difluorophenyl 4-(2-amino-6-methyl-5-{5-[2-(trifluoromethyl)pyrimidin-4-yl]-1,3,4-oxadiazol-2-yl}pyrimidin-4-yl)piperidine-1-carboxylate] | 24.7
8 | COc1ccccc1OC(=O)N1CCC(c2nc(N)nc(C)c2-c2nnc(-c3ccnc(C(F)(F)F)n3)o2)CC1 [Compound C57, 2-(methyloxy)phenyl 4-(2-amino-6-methyl-5-{5-[2-(trifluoromethyl)pyrimidin-4-yl]-1,3,4-oxadiazol-2-yl}pyrimidin-4-yl)piperidine-1-carboxylate] | 23.6
9 | CSc1nc(C)c(-c2nnc(-c3cccc(C(F)(F)F)n3)o2)c(C2CCN(C(=O)Nc3c(F)cccc3F)CC2)n1 [Compound C58, N-(2,6-Difluorophenyl)-4-[6-methyl-2-(methylthio)-5-{5-[6-(trifluoromethyl)pyridin-2-yl]-1,3,4-oxadiazol-2-yl}pyrimidin-4-yl]piperidine-1-carboxamide] | 14.1
10 | Cc1nc(N)nc(C2CCN(C(=O)Nc3c(F)cccc3F)CC2)c1-c1nnc(-c2cccc(C(F)(F)F)n2)o1 [Compound C59, 4-(2-Amino-6-methyl-5-{5-[6-(trifluoromethyl)pyridin-2-yl]-1,3,4-oxadiazol-2-yl}pyrimidin-4-yl)-N-(2,6-difluorophenyl)piperidine-1-carboxamide] | 27.9
11 | COc1nc(C)c(-c2nnc(-c3cccc(C(F)(F)F)n3)o2)c(C2CCN(C(=O)Nc3c(F)cccc3F)CC2)n1 [Compound C60, N-(2,6-Difluorophenyl)-4-[6-methyl-2-(methyloxy)-5-{5-[6-(trifluoromethyl)pyridin-2-yl]-1,3,4-oxadiazol-2-yl}pyrimidin-4-yl]piperidine-1-carboxamide] | 204
12 | COc1nc(C)c(-c2nnc(-c3ccnc(C(F)(F)F)n3)o2)c(C2CCN(C(=O)Nc3c(F)cccc3F)CC2)n1 [Compound C61, N-(2,6-Difluorophenyl)-4-[6-methyl-2-(methyloxy)-5-{5-[2-(trifluoromethyl)pyrimidin-4-yl]-1,3,4-oxadiazol-2-yl}pyrimidin-4-yl]piperidine-1-carboxamide] | 1140
13 | Cc1ncc(-c2nnc(-c3ccnc(C(F)(F)F)n3)o2)c(C2CCN(C(=O)Cc3c(F)cccc3F)CC2)n1 [Compound C62, 4-{1-[(2,6-difluorophenyl)acetyl]piperidin-4-yl}-2-methyl-5-{5-[2-(trifluoromethyl)pyrimidin-4-yl]-1,3,4-oxadiazol-2-yl}pyrimidine] | 157
14 | Cc1nc(C)c(-c2nc(-c3cccc(C(F)(F)F)c3)no2)c(C2CCN(C(=O)Nc3c(F)cccc3F)CC2)n1 [Compound C63, N-(2,6-difluorophenyl)-4-(2,6-dimethyl-5-{3-[3-(trifluoromethyl)phenyl]-1,2,4-oxadiazol-5-yl}pyrimidin-4-yl)piperidine-1-carboxamide] | 281
15 | Cc1nc(C)c(-c2nc(-c3cccc(C(F)(F)F)c3)no2)c(C2CCN(C(=O)Nc3c(F)cccc3C(F)(F)F)CC2)n1 [Compound C64, 4-(2,6-Dimethyl-5-{3-[3-(trifluoromethyl)phenyl]-1,2,4-oxadiazol-5-yl}pyrimidin-4-yl)-N-[2-fluoro-6-(trifluoromethyl)phenyl]piperidine-1-carboxamide] | 183
16 | Cc1nc(C)c(-c2nc(-c3cccc(C(F)(F)F)c3)no2)c(C2CCN(C(=O)c3c(F)cccc3F)CC2)n1 [Compound C65, 4-{1-[(2,6-Difluorophenyl)carbonyl]piperidin-4-yl}-2,6-dimethyl-5-{3-[3-(trifluoromethyl)phenyl]-1,2,4-oxadiazol-5-yl}pyrimidine] | 2730
17 | Cc1nc(C)c(-c2ncc(-c3cccc(Cl)c3)o2)c(C2CCN(C(=O)Cc3c(F)cccc3F)CC2)n1 [Compound C66, 5-[5-(3-Chlorophenyl)-1,3-oxazol-2-yl]-4-{1-[(2,6-difluorophenyl)acetyl]piperidin-4-yl}-2,6-dimethylpyrimidine] | 65.9
18 | Cc1nc(C)c(-c2ncc(-c3cccc(Cl)c3)o2)c(C2CCN(C(=O)Nc3c(F)cccc3F)CC2)n1 [Compound C67, 4-{5-[5-(3-Chlorophenyl)-1,3-oxazol-2-yl]-2,6-dimethylpyrimidin-4-yl}-N-(2,6-difluorophenyl)piperidine-1-carboxamide] | 111
19 | Cc1nc(C)c(-c2ncc(-c3ccnc(C(F)(F)F)n3)o2)c(C2CCN(C(=O)Nc3c(F)cccc3F)CC2)n1 [Compound C68, N-(2,6-Difluorophenyl)-4-(2,6-dimethyl-5-{5-[2-(trifluoromethyl)pyrimidin-4-yl]-1,3-oxazol-2-yl}pyrimidin-4-yl)piperidine-1-carboxamide] | 102
20 | Cc1nc(N)nc(C2CCN(C(=O)Nc3c(F)cccc3F)CC2)c1-c1ncc(-c2ccnc(C(F)(F)F)n2)o1 [Compound C69, 4-(2-amino-6-methyl-5-{5-[2-(trifluoromethyl)pyrimidin-4-yl]-1,3-oxazol-2-yl}pyrimidin-4-yl)-N-(2,6-difluorophenyl)piperidine-1-carboxamide] | 30.8
21 | Cc1nc(N)nc(C2CCN(C(=O)Nc3c(F)cccc3F)CC2)c1-c1cnc(-c2ccnc(C(F)(F)F)n2)o1 [Compound C70, 4-(2-Amino-6-methyl-5-{2-[2-(trifluoromethyl)pyrimidin-4-yl]-1,3-oxazol-5-yl}pyrimidin-4-yl)-N-(2,6-difluorophenyl)piperidine-1-carboxamide] | 108
22 | Cc1nc(N)nc(C2CCN(C(=O)Nc3ccccc3Cl)CC2)c1-c1nnc(-c2ccnc(C(F)(F)F)n2)o1 [Compound C71, 4-(2-Amino-6-methyl-5-{5-[2-(trifluoromethyl)pyrimidin-4-yl]-1,3,4-oxadiazol-2-yl}pyrimidin-4-yl)-N-(2-chlorophenyl)piperidine-1-carboxamide] | 30.2
23 | Cc1ncc(C(C)(O)CNc2cccc(Cl)c2)c(C2CCN(C(=O)Cc3c(F)cccc3F)CC2)n1 (centres unmarked) [Compound D1, 1-(4-(5-(1-(3-Chlorophenylamino)-2-hydroxypropan-2-yl)-2-methylpyrimidin-4-yl)piperidin-1-yl)-2-(2,6-difluorophenyl)ethanone] | 2.6
24 | Cc1ncc(C(C)(O)CNc2cccc(C(F)(F)F)n2)c(C2CCN(C(=O)Cc3c(F)cccc3F)CC2)n1 (centres unmarked) [Compound D2, 2-(2,6-difluorophenyl)-1-(4-(5-(2-hydroxy-1-((6-(trifluoromethyl)pyridin-2-yl)amino)propan-2-yl)-2-methylpyrimidin-4-yl)piperidin-1-yl)ethanone] | 3.9
25 | Cc1cc(C)cc(NCC(C)(O)c2cnc(C)nc2C2CCN(C(=O)Cc3c(F)cccc3F)CC2)c1 (centres unmarked) [Compound D3, 2-(2,6-difluorophenyl)-1-(4-(5-(1-((3,5-dimethylphenyl)amino)-2-hydroxypropan-2-yl)-2-methylpyrimidin-4-yl)piperidin-1-yl)ethanone] | 5
26 | Cc1ncc(C(C)(O)CNc2cccc(C(F)(F)F)c2)c(C2CCN(C(=O)Cc3c(F)cccc3F)CC2)n1 (centres unmarked) [Compound D4, 2-(2,6-difluorophenyl)-1-(4-(5-(2-hydroxy-1-((3-(trifluoromethyl)phenyl)amino)propan-2-yl)-2-methylpyrimidin-4-yl)piperidin-1-yl)ethanone] | 6.1
